Each structure is given as a SMILES string. “Also recorded” adds a separate entry of the source.

Series [1] relates to HT-29 cells. The format is cell-based. The conditions noted are these: 2 hr incubation, then 66 hr in fresh medium, FIG. 8, read-out: IC50 (3H-thymidine incorporation). Here is the method: General Procedure for In Vitro Cytotoxicity Determination by ^3H-Thymidine Uptake Assays
HT-29 cells were seeded on amine-coated 24-well plates and allowed to form monolayers. The spent medium in each well was replaced with fresh medium (0.5 mL) containing various concentrations of Conjugate 12. After incubating for 2 hr at 37° C., cells were rinsed three times with fresh medium and then incubated an additional 66 hr at 37° C. in fresh medium. Spent medium in each well was again replaced with fresh medium (0.5 mL) containing ^3H-thymidine (1 μCi/ml) and the cells were incubated for an additional 4 hr. After washing the cells three times with medium, they were dissolved in 0.5 mL of 0.25 M NaOH. Thymidine incorporation was then determined by counting cell-associated radioactivity using a scintillation counter (PACKARD, PACKARD INSTRUMENT COMPANY). The IC50 value was derived from a plot of the percent of ^3H-thymidine incorporation versus log concentration using Graph Pad Prism 4 and TABLECURVE 2D software.
Background: Uptake of a labelled nucleoside into DNA is a usual measure of proliferation.

For series [2], the system named is HT-29 xenografts. Description: In vivo efficacy of tubulysin conjugates in HT-29 xenograft tumors. Also on record: species or system mice. Here is the method:
(§1) Athymic nu/nu mice were purchased from Harlan Laboratories (ENVIGO), housed in a sterile environment on a standard 12 hour light-dark cycle and maintained on normal rodent chow. All animal procedures were approved by the PURDUE Animal Care and Use Committee in accordance with National Institutes of Health guidelines.
In Vivo Efficacy of Tubulysin Conjugate 12 in HT29 Xenograft Tumors.
Cells, HT-29 cells (4.25×10^6) were subcutaneously injected into the shoulders of 5-6 week old female nu/nu mice. Tumors were measured in two perpendicular directions thrice weekly with vernier calipers and their volumes were calculated as 0.5×L×W^2, where L is the longest axis (in millimeters), and W is the axis perpendicular to L (in millimeters). Dosing of Conjugate 12 was initiated when the subcutaneous tumors reached ˜100-275 mm^3 in volume. Dosing solutions were prepared in saline and filtered through a 0.22 μm filter. Solutions were administered via tail vein injection or intraperitoneally. […] Injections were given every two days and the mice were weighed concurrently. […]

Series [3] concerns A549 xenografts. Description: In vivo efficacy of Conjugate 14 in A549 xenografts. As to conditions: 1.25 umole/kg TIW for three weeks, FIG. 17. Also on record: species or system mice. As for the experimental part:
as §1
Cells, HT-29 cells (4.25×10^6) were subcutaneously injected into the shoulders of 5-6 week old female nu/nu mice. Tumors were measured in two perpendicular directions thrice weekly with vernier calipers and their volumes were calculated as 0.5×L×W^2, where L is the longest axis (in millimeters), and W is the axis perpendicular to L (in millimeters). Dosing of Conjugate 12 was initiated when the subcutaneous tumors reached ˜100-275 mm^3 in volume. Dosing solutions were prepared in saline and filtered through a 0.22 μm filter. Solutions were administered via tail vein injection or intraperitoneally. Each mouse received 2 μmol/kg Conjugate 12 per injection. Injections were given every two days and the mice were weighed concurrently.
Similar experiments were performed using Conjugate 14 with A549 cells instead of HT-29 cells (FIGS. 17 and 18).

`CCCC(=O)OCN(C(=O)[C@@H](NC(=O)C1CCCCN1C)[C@@H](C)CC)[C@H](C[C@@H](OC(C)=O)c1nc(C(=O)N[C@@H](Cc2ccc(O)cc2)C[C@H](C)C(=O)NNC(=O)OCCSSC[C@H](NC(=O)[C@H](CC(=O)O)NC(=O)[C@@H](N)CNC(=O)CCOCCOCCNC(=O)CCS(=O)(=O)c2c(F)c(F)c(S(N)(=O)=O)c(F)c2NC2CCCCCCC2)C(=O)O)cs1)C(C)C` (some centres unmarked) [Conjugate 12]: the IC50 in series [1] came out at 5.04 nM. Moreover, the gross toxicity entry in series [2] (HT-29 xenograft mice, 2 μmol/kg per injection) was “no gross toxicity was observed”. In addition, in series [2] (HT-29 xenograft mice, 2 μmol/kg per injection, FIG. 12), the loss of weight result is “less than 10%”. The body mass loss entry in series [2] (HT-29 xenograft mice, 2 umol/kg, at 6 days into the treatment, FIG. 12) is given as “not more than 10%”. Moreover, the tumor response result in series [2] (HT-29 xenografts, 2 μmol/kg per injection, every two days (TIW), n=3, FIG. 11) was “tumors shrinking; also recorded: halted tumor growth and the xenograft is in the process of shrinking”.
Consider `CCCC(=O)OCN(C(=O)[C@@H](NC(=O)C1CCCCN1C)[C@@H](C)CC)[C@H](C[C@@H](OC(C)=O)c1nc(C(=O)N[C@@H](Cc2ccc(O)cc2)C[C@H](C)C(=O)NNC(=O)OCCSSC[C@H](NC(=O)[C@H](CC(=O)O)NC(=O)[C@@H](N)CNC(=O)C(CC(=O)O)NC(=O)C(CCCNC(=N)N)NC(=O)C(CC(=O)O)NC(=O)CCOCCOCCNC(=O)CCS(=O)(=O)c2c(F)c(F)c(S(N)(=O)=O)c(F)c2NC2CCCCCCC2)C(=O)O)cs1)C(C)C` (some centres unmarked) [Conjugate 14], for which, in series [2] (HT-29 xenograft mice, 1.5, 1, 0.5, 0.25 μmole/kg, n=1 each, FIG. 14), the “whole body mass, other doses” value is on record as “acceptable body mass profiles”. Moreover, the “whole body mass, highest dose” value in series [2] (HT-29 xenograft mice, highest dose (2 μmole/kg), n=1, FIG. 14) is “loss of body mass”. Besides, in series [2] (HT-29 xenografts, 1 umole/kg, n=1, FIG. 13), the “tumor reemergence, starting day” value is 16 days. Also, the tumor response entry was “stable tumor regression and stable disease until treatment cessation” in series [2] (HT-29 xenografts, 1.25 umole/kg TIW for three weeks, n=5, FIG. 15); “stable tumor regression and stable disease until treatment cessation” in series [3]. Also, the “tumor response, dose escalation” value in series [2] (HT-29 xenografts, doses 2, 1.5, and 1 umole/kg, n=1 for each dose, FIG. 13) is reported as “shrank tumors”.

The values are drawn from patent US11524082B2, “FBSA-based therapeutic and radioimaging conjugates targeting carbonic anhydrase positive cancers” (priority 2017, dated 2022).
